Experimental data from ChEMBL document CHEMBL1955729, “N⁴-(3-Bromophenyl)-7-(substituted benzyl) pyrrolo[2,3-d]pyrimidines as potent multiple receptor tyrosine kinase inhibitors: design, synthesis, and in vivo evaluation” (Bioorg Med Chem, 2012).
Activity calls are given as the source filed them. The calls are words filed in the database; no cut-off is given here.

Assays:
[1] = molecular target: T1, Vascular endothelial growth factor receptor 2 (Homo sapiens, UniProt P35968)
[2] = molecular target: T2, Vascular endothelial growth factor receptor 1 (Homo sapiens, UniProt P17948)
T2 sequence (P17948 whole entry): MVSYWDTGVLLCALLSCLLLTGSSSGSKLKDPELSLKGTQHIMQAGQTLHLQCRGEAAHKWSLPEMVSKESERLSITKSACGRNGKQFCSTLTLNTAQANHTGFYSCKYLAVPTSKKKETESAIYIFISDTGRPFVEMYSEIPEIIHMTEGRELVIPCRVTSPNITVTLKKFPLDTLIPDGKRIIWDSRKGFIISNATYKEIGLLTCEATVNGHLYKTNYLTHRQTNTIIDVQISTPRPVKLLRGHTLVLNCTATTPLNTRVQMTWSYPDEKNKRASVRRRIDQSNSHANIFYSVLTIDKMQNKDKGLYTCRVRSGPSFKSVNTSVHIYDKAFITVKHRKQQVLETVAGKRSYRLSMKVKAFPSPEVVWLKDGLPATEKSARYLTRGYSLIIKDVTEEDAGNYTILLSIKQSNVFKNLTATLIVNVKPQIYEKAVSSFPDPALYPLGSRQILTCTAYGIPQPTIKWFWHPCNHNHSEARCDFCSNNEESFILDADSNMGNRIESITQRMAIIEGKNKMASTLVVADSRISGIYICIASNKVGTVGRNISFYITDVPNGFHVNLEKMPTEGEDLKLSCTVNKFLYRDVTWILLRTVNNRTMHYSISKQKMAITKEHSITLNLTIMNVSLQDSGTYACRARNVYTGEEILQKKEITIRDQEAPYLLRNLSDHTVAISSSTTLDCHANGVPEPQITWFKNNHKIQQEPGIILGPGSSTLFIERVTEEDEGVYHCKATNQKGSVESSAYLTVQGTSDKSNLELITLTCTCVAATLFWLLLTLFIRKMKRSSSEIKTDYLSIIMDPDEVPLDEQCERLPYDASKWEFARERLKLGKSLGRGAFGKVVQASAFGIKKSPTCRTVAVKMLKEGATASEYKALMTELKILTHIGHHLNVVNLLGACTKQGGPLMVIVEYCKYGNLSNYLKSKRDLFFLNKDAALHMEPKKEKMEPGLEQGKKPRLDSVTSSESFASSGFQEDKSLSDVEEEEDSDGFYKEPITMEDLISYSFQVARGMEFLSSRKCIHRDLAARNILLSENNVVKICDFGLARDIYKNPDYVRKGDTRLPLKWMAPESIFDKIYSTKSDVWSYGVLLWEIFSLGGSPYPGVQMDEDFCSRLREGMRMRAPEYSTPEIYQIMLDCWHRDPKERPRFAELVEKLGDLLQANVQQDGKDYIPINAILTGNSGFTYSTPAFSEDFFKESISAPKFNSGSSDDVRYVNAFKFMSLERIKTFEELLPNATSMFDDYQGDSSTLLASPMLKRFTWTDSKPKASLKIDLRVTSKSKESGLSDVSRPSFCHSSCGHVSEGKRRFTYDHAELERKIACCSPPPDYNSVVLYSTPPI

[3] = molecular target: Epidermal growth factor receptor (Homo sapiens, UniProt P00533)
Chain of Epidermal growth factor receptor (P00533 whole entry): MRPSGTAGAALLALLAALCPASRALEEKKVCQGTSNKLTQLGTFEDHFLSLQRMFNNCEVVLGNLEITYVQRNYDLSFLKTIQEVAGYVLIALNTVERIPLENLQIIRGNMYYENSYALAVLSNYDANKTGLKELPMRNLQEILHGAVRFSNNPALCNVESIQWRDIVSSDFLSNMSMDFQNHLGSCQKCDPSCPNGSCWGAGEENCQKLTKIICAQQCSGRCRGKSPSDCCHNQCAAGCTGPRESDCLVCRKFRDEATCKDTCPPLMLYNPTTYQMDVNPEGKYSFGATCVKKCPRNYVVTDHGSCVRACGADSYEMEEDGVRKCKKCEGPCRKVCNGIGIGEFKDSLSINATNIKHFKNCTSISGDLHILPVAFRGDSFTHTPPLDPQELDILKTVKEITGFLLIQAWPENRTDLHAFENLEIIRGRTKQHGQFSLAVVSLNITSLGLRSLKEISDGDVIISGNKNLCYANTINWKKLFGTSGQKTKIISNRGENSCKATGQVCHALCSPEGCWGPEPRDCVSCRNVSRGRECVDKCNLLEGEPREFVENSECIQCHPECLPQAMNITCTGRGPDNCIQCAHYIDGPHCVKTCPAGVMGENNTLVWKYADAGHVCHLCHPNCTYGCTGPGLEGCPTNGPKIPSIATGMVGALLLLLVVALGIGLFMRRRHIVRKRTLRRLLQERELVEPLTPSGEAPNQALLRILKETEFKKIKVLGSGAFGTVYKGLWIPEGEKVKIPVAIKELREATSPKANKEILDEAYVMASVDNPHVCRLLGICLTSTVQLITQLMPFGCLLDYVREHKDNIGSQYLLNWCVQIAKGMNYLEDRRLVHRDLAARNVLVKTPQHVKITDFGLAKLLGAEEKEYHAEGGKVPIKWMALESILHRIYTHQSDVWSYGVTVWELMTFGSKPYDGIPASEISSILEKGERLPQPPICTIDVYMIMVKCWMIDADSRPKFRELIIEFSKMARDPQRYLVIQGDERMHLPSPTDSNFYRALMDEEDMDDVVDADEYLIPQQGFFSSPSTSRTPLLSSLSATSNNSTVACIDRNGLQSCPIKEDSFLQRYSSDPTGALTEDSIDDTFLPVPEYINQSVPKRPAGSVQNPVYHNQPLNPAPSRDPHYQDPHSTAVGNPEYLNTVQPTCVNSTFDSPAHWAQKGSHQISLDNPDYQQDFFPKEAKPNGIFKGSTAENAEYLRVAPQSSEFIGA

[4] = molecular target: T3, Platelet-derived growth factor receptor beta (Homo sapiens, UniProt P09619); experiment: Inhibition of PDGFBB-induced PDGFRbeta autophosphorylation in human SF539 cells incubated for 60 mins prior to PDGFBB-induction measured after 10 mins by phosphotyrosine ELISA; format: cell-based, SF-539
T3 sequence (P09619 whole entry): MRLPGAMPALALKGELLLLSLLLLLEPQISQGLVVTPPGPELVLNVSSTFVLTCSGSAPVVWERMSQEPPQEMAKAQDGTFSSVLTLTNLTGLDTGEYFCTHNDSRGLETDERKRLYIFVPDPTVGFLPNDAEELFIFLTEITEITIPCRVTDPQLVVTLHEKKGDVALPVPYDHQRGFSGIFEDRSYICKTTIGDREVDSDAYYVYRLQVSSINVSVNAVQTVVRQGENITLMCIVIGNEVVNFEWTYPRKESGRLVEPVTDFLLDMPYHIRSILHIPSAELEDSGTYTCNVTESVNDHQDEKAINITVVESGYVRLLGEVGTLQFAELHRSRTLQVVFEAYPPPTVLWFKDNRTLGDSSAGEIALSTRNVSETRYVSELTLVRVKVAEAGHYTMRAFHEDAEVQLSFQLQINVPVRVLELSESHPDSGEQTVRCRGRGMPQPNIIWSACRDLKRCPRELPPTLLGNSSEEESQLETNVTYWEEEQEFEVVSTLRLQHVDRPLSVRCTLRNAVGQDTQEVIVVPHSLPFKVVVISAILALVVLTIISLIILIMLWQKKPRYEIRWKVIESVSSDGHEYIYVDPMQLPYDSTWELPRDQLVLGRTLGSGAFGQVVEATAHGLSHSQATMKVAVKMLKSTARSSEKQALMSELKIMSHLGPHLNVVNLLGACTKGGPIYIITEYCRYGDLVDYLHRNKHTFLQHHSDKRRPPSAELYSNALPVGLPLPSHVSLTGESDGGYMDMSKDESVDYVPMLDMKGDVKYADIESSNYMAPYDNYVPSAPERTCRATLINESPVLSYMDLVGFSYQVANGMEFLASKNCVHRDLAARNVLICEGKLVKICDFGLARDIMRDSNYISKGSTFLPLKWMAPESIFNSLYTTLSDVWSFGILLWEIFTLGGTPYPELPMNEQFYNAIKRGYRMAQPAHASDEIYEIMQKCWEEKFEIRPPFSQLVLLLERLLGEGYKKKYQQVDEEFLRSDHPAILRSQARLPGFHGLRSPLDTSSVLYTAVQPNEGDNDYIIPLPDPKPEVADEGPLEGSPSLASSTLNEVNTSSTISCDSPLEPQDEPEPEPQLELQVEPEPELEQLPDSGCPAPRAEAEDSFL

Mus musculus = experiment: (§1) Toxicity in NCr nu/nu mouse assessed as body weight loss administered for 3 days per week measured after 6 weeks; format: organism-based; conditions: in vivo, 1008 h
COLO 205 [5] = experiment: Antitumor activity against human COLO205 cells xenografted in athymic NIH-II mouse assessed as decrease in tumor growth rate at 10 mg/kg, ip administered 3 days per week relative to control; format: functional, organism-based; set-up: dose 10 mg/kg
COLO 205 [6] = experiment: Antiangiogenic activity in human COLO205 cells xenografted in athymic NIH-II mouse at 10 mg/kg, ip administered 3 days per week by hematoxylin and eosin staining relative to control; format: functional, organism-based; set-up: dose 10 mg/kg
COLO 205 [7] = experiment: Antimetastatic activity against human COLO205 cells xenografted in athymic NIH-II mouse at 10 mg/kg, ip administered for 3 days per week by hematoxylin and eosin staining; format: functional, organism-based; set-up: dose 10 mg/kg
[8] = as §1; format: organism-based; conditions: NCr nu/nu, in vivo
COLO 205 [9] = experiment: Antitumor activity against human COLO205 cells xenografted in athymic NIH-II mouse assessed as decrease in tumor growth rate at 35 mg/kg, ip administered 3 days per week relative to control; format: functional, organism-based; set-up: dose 35 mg/kg
COLO 205 [10] = experiment: Antiangiogenic activity in human COLO205 cells xenografted in athymic NIH-II mouse at 35 mg/kg, ip administered 3 days per week by hematoxylin and eosin staining relative to control; format: functional, organism-based; set-up: dose 35 mg/kg
COLO 205 [11] = experiment: Antimetastatic activity against human COLO205 cells xenografted in athymic NIH-II mouse at 35 mg/kg, ip administered for 3 days per week by hematoxylin and eosin staining; format: functional, organism-based; set-up: dose 35 mg/kg
[12] = molecular target: T3, Platelet-derived growth factor receptor beta
[13] = molecular target: T1, Vascular endothelial growth factor receptor 2; remark: listed apart in the source
[14] = molecular target: T2, Vascular endothelial growth factor receptor 1; remark: listed apart in the source

T1 sequence (P35968 whole entry): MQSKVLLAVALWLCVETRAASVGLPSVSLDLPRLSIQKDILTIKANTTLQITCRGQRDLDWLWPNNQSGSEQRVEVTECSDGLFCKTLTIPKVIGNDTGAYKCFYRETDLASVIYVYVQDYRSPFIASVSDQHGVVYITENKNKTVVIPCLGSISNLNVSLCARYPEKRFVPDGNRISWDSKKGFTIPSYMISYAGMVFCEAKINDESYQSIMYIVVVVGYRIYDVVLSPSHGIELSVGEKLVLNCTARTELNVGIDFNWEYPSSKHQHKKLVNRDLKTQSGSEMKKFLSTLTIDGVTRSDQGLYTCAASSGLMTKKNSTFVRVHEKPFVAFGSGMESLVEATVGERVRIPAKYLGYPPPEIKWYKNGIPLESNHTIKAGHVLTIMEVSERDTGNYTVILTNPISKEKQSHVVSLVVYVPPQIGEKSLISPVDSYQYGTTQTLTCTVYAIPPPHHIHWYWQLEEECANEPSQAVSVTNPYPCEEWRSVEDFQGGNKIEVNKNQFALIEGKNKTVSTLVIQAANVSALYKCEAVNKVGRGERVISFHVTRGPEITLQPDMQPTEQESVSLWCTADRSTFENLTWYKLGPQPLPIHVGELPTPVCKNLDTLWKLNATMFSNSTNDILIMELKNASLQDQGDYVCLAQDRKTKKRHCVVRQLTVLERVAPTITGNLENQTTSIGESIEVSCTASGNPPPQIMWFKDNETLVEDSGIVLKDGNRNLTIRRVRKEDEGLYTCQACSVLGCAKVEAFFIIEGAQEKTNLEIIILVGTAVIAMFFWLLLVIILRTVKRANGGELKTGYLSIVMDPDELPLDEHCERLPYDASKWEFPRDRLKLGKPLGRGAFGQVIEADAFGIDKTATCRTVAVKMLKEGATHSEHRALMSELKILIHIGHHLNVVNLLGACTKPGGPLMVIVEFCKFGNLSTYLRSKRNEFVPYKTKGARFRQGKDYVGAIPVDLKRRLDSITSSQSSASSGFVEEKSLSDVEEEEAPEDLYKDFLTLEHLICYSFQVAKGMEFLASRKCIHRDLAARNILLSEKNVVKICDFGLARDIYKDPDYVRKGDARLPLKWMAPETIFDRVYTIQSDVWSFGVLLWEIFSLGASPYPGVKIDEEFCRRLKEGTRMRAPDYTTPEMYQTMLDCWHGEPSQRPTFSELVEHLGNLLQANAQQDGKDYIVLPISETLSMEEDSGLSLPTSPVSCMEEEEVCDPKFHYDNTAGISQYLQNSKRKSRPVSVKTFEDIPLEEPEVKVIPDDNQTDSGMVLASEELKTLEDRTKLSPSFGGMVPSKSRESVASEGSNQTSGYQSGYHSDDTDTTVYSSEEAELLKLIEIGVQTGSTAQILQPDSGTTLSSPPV

| SMILES | IC50 [1] | IC50 [2] | IC50 [3] | IC50 [4] | other results |
| --- | --- | --- | --- | --- | --- |
| COc1ccc(OC)c(Cn2ccc3c(Nc4cccc(Br)c4)nc(N)nc32)c1 | > 200 µM | > 200 µM | 69.2 µM | – | – |
| Nc1nc(Nc2cccc(Br)c2)c2ccn(Cc3cccc4ccccc34)c2n1 | 14.9 µM | 150 µM | > 200 µM | 129 µM | – |
| Nc1nc(Nc2cccc(Br)c2)c2ccn(Cc3ccc(-c4ccccc4)cc3)c2n1 | 22.9 µM | > 200 µM | > 200 µM | 129 µM | – |
| Cc1[nH]c(/C=C2\C(=O)Nc3ccccc32)c(C)c1CCC(=O)O [ORANTINIB] | – | – | – | – | MTD (Mus musculus): 10 mg/kg; TGI (COLO 205 [5]): Active; Activity (COLO 205 [6]): Active; Activity (COLO 205 [7]): inactive |
| Nc1nc(Nc2cccc(Br)c2)c2ccn(Cc3ccc4ccccc4c3)c2n1 | 22.9 µM | 50.8 µM | > 200 µM | 212 µM | – |
| Nc1nc(Nc2cccc(Br)c2)c2ccn(Cc3ccccc3)c2n1 | 23.8 µM | 99.3 µM | 166 µM | > 500 µM | – |
| Nc1nc(Nc2cccc(Br)c2)c2ccn(Cc3ccc(Cl)cc3)c2n1 | 65.3 µM | 79.9 µM | 99.9 µM | > 500 µM | – |
| Nc1nc(Nc2cccc(Br)c2)c2ccn(Cc3ccccc3Cl)c2n1 | 17.9 µM | 126 µM | > 200 µM | 1.5 µM | MTD at 1008 h [8]: 35 mg/kg; TGI (COLO 205 [9]): Active; Activity (COLO 205 [10]): Active; Activity (COLO 205 [11]): Active |
| COc1cc(Cn2ccc3c(Nc4cccc(Br)c4)nc(N)nc32)cc(OC)c1OC | 25.7 µM | 156 µM | > 200 µM | 1.8 µM | – |
| Cc1ccccc1Cn1ccc2c(Nc3cccc(Br)c3)nc(N)nc21 | 113 µM | 129 µM | 113 µM | 160 µM | – |
| Nc1nc(Nc2cccc(Br)c2)c2cc(Cc3ccc(Cl)cc3)[nH]c2n1 | – | – | – | – | IC50 [12]: > 50 µM; IC50 [13]: 8.28 µM; IC50 [14]: 42.7 µM |
| Nc1nc(Nc2cccc(Br)c2)c2ccn(Cc3ccc(Cl)c(Cl)c3)c2n1 | 64.5 µM | 119 µM | > 200 µM | 230 µM | – |
| Nc1nc(Nc2cccc(Br)c2)c2cc(Cc3ccc(Cl)c(Cl)c3)[nH]c2n1 | – | – | – | – | IC50 [12]: > 50 µM |
| Nc1nc(Nc2cccc(Br)c2)c2ccn(Cc3ccc(Cl)cc3Cl)c2n1 | > 200 µM | 138 µM | > 200 µM | 34.2 µM | – |
